Assay results published in paper PMC3715888, “A Fully Unsupervised Compartment-on-Demand Platform for Precise Nanoliter Assays of Time-Dependent Steady-State Enzyme Kinetics and Inhibition” (Analytical Chemistry, 2013).
Where a name gives a salt, the structure may show the parent alone.

Target: sweet almond β-glucosidase
Assay: droplet absorbance assay of 4-nitrophenyl glucopyranoside hydrolysis ([…] nm); IC50 […] converted to Ki by Cheng-Prusoff
Assay type: biochemical, Prunus dulcis

Ki: ~36 µM
Structure (SMILES): OC[C@H]1NC[C@H](O)[C@@H](O)[C@@H]1O [DNM, 1-deoxynojirimycin hydrochloride]
